From patent US20220031605A1, “TARGETED DRUG DELIVERY SYSTEM TO BE USED IN TREATING OSTEOMYELITIS” (EGE UNIVERSITESI, priority 2018, published 2022)

Tested on: Staphylococcus Aureus
Assay: In vivo osteomyelitis model (Staphylococcus Aureus injected to proximal tibia), radiograph and hematological analysis
Design: species or system Wistar albino rats
Settings: rat osteomyelitis model
Protocol: Wistar albino rats were operated on, and osteomyelitis model was established by injecting Staphylococcus Aureus pathogen to the proximal tibia. In order to determined that the osteomyelitis model was formed, Xray (Radiograph) image was taken. The animals that were determined to have osteomyelitis, were separated into 3 groups, as the gelatin nanoparticle comprising gentamicin (I), free drug (II) and control (III) groups, and they were included in the treatment with 2-4 injections a weak. 100-300 μl, gelatin nanoparticle comprising gentamicin, free form (commercial gentamicin and physiological saline solution was injected intravenously into the tail vein of the groups I, II, and III respectively. On the 14th day following the commencement of treatment, a radiograph was taken in order to track the treatment process. Hematological analysis was carried out during the treatment and after the treatment. The lymphocyte reference range for rats was 1.4-9.4×10^3/μL. As a result of the haemogram carried out on healthy rats, the lymphocyte value was 7.4×10^3/μL.

gentamicin [Free gentamicin]
Lymphocyte number following 6 dose stherapy (intravenous, tail vein, after 6 doses, reference range 1.4-9.4, healthy rats 7.4): 12.6 10^3/μL
Radiograph finding after therapy (radiograph following 6 doses of therapy, compared with image 14 days after model establishment): abscess was present, bone integrity was not yet formed and healing was only present on the periost
